Calls of active or inactive are those of the source.
Assays:
[1] = target: Beta-galactosidase (Escherichia coli, UniProt Q8VNN2); assay: PubChem AID 485352; format: functional
[2] = target: T1, Type-1 angiotensin II receptor (Homo sapiens, UniProt P30556); assay: AT1 receptor antagonists, dose response, selectivity assay for APJ receptor antagonist project, cell-based, uHTS hits (AID 463214); format: functional;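 note: antagonist potency against angiotensin II stimulated AT1 response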
T1 sequence (P30556 whole entry): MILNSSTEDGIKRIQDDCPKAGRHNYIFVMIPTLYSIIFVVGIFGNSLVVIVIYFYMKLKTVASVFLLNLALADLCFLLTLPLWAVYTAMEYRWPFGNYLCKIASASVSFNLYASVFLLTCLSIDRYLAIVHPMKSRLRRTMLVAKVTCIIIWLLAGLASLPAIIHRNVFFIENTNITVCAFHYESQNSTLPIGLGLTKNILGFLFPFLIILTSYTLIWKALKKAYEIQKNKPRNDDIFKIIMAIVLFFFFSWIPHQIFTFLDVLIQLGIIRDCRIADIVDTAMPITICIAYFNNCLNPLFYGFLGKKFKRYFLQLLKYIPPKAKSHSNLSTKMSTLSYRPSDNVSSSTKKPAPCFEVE

[3] = target: T2, Coagulation factor XII (Homo sapiens, UniProt P00748); format: functional;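 note: activated factor XIIa alpha cleaving a fluorogenic AMC peptide substrate; inhibitor potency from loss of enzyme activity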
T2 sequence (P00748 whole entry): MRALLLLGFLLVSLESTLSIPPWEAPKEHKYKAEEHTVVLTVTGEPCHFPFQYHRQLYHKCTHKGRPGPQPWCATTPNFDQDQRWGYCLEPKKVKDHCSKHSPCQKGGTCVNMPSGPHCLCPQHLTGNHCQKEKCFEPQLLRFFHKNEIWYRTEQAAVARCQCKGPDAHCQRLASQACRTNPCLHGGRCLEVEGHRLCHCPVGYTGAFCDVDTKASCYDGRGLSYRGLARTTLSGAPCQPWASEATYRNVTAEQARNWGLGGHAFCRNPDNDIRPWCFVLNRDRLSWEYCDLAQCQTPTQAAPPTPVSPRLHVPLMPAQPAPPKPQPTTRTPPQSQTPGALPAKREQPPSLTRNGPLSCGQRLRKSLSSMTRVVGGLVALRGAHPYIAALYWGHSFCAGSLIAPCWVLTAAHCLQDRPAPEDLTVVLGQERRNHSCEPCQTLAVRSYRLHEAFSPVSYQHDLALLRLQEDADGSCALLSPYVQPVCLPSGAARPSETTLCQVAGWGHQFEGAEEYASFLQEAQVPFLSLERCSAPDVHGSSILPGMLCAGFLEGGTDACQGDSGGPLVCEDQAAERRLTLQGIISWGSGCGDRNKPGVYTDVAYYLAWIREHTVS

[4] = target: Troponin, cardiac muscle (Homo sapiens, UniProt P19429+P45379+P63316); assay: Fluorescence-based biochemical high throughput dose response assay for activators of the calcium sensitivity of cardiac Regulated Thin Filaments (RTF). [Related pubchem assays (depositor defined):AID493008, AID493018, AID504382, AID504383]; format: protein-complex assay
[5] = target: T3, Bcl-2-like protein 10 (Homo sapiens, UniProt Q9HD36); assay: displacers of TR3 peptide from Bcl-B, primary screen, selectivity assay for Bfl-1 inhibitor project, biochemical, fluorescence polarization, FITC-TR3 peptide (AID 748);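 note: fluorescence polarization from a fluorescein-labelled TR3 peptide binding purified Bcl-B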
T3 sequence (Q9HD36 whole entry): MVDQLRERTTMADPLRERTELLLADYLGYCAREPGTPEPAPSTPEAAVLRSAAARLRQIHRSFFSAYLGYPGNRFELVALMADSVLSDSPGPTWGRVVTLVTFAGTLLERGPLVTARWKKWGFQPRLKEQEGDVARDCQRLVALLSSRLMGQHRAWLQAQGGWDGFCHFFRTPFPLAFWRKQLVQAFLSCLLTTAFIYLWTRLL

[6] = target: Nonstructural protein 1 (Influenza A virus, UniProt Q194T2); format: functional, Influenza A virus (A/California/07/2009(H1N1))
[7] = target: Induced myeloid leukemia cell differentiation protein Mcl-1 (Homo sapiens, UniProt Q07820); format: functional
[8] = target: Peroxisome proliferator-activated receptor gamma/Nuclear receptor coactivator 2 (Homo sapiens, UniProt P37231); assay: (§1) TR-FRET dose response biochemical High Throughput Screening assay for agonists of the steroid receptor coactivator 2 (SRC-2) recruitment by the peroxisome proliferator-activated receptor gamma (PPAR gamma): non-selective agonists. [Related pubchem assays: 1297, 1032 ]; format: functional
[9] = target: Peroxisome proliferator-activated receptor gamma/Nuclear receptor coactivator 1 (Homo sapiens, UniProt P37231); assay: as §1, with “1 (SRC-1)” for “2 (SRC-2)”, “assays (depositor defined):AID1300, AID1808, AID504735, AID631]” for “assays: 1297, 1032 ]”; format: protein assay
[10] = target: Peroxisome proliferator-activated receptor gamma/Nuclear receptor coactivator 3 (Homo sapiens, UniProt P37231); assay: as §1, with “3 (SRC-3)” for “2 (SRC-2)”, “1301 (Confirmation screen.), 1048 (Primary screen.)]” for “1297, 1032 ]”; format: functional
[11] = MC4R antagonists, dose response, counter-screen for LGR2 antagonist project, cell-based, plate reader, cherry pick (AID 743444); format: functional;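 note: transfected HEK 293 cells stimulated with alpha-MSH peptide; potency of inhibitors of the alpha-MSH evoked signal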
[12] = A549 cell cytotoxicity, dose response, cytotoxicity control, plate reader, cherry-pick, antagonist series (AID 743412); format: functional, cell-based
[13] = HEK293 cell cytotoxicity, dose response, cytotoxicity control, plate reader, cherry-picked samples (AID 743446); format: functional, cell-based
[14] = HepG2 cell cytotoxicity, dose response, cytotoxicity control, plate reader, cherry-pick, antagonist series (AID 743416); format: functional, cell-based
[15] = LGR2 antagonists, dose response, cell-based, HEK293, CRE-luciferase reporter, cherry pick, set 2 (AID 743343); format: functional;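 note: transfected cells were stimulated with diluted bursicon conditioned medium after compound addition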
[16] = system: Streptococcus; assay: Group A Streptococcus viability loss, dose response, counter-screen for streptokinase expression inhibitor project, luminescence, BacTiterGlo (AID 1915); format: functional, organism-based;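 note: potency for reduction of bacterial viability or growth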
[17] = THP-1 cell cytotoxicity, dose response, cytotoxicity control for non-replicating M. tuberculosis project (AID 489025); format: functional
[18] = system: Streptococcus sp. 'group A'; assay: growth inhibition of control SK(-) GAS strain, dose response, counter-screen for streptokinase expression inhibitor project, luminescence, kanamycin, BacTiterGlo, confirmation (AID 1900); format: functional, organism-based
[19] = C. albicans growth with fluconazole, confirmation, fluorescence, retest (AID 2467); format: functional, cell-based
[20] = Vero E6 cell cytotoxicity, dose response, cytotoxicity control for non-replicating M. tuberculosis project, secondary assay (AID 492998); format: functional, VeroE6; conditions: Vero C1008
[21] = NIH-3T3 fibroblast cytotoxicity, dose response, cytotoxicity control, cell-based, fluorescence, Alamar Blue, secondary assay (AID 2327); format: functional;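 note: NIH-3T3 mouse fibroblasts cultured with fluconazole at 8 µg/mL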
[22] = cells; format: functional

Beta-galactosidase, sequence (Q8VNN2 whole entry): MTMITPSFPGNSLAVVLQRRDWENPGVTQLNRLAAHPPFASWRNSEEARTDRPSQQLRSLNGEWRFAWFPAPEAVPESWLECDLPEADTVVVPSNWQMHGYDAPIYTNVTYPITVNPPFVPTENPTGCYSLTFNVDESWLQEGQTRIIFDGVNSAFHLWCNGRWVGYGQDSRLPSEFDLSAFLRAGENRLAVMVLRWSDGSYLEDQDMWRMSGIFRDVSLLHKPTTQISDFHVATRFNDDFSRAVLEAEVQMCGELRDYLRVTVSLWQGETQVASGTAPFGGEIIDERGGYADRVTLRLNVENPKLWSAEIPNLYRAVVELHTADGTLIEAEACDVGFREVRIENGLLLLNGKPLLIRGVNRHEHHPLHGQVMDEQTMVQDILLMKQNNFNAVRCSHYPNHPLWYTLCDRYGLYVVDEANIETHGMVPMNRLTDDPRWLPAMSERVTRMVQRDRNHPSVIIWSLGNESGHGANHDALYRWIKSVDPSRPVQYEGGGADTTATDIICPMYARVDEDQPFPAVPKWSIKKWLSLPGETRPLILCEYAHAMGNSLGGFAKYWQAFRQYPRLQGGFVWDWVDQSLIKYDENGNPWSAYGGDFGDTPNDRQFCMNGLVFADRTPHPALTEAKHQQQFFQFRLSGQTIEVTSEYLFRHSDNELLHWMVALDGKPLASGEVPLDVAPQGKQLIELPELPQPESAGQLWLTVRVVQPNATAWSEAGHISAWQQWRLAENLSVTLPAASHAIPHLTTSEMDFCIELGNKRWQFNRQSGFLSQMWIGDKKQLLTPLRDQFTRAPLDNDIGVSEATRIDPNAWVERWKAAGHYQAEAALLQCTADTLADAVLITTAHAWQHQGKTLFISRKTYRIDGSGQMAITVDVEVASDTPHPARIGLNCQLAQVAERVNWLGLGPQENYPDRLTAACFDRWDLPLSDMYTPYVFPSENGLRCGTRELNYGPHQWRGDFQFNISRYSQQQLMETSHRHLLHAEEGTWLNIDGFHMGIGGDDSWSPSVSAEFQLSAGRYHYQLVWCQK
Nonstructural protein 1, sequence (Q194T2 whole entry): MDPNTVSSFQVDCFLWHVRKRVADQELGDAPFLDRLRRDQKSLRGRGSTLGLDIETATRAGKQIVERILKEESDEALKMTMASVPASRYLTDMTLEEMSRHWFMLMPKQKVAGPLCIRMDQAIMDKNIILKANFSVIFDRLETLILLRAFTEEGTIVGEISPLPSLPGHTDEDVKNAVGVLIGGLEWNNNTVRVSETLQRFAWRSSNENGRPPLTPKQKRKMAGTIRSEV
Induced myeloid leukemia cell differentiation protein Mcl-1, sequence (Q07820 whole entry): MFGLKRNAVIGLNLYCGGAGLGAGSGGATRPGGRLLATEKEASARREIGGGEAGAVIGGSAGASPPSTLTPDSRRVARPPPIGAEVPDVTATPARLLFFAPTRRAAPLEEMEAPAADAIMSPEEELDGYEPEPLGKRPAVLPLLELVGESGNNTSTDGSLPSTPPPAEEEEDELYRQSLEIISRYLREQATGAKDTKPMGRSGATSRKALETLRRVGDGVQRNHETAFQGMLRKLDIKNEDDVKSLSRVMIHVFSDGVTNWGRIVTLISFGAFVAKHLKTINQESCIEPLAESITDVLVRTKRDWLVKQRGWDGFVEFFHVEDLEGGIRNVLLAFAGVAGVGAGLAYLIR
Peroxisome proliferator-activated receptor gamma/Nuclear receptor coactivator 3, sequence (P37231 whole entry): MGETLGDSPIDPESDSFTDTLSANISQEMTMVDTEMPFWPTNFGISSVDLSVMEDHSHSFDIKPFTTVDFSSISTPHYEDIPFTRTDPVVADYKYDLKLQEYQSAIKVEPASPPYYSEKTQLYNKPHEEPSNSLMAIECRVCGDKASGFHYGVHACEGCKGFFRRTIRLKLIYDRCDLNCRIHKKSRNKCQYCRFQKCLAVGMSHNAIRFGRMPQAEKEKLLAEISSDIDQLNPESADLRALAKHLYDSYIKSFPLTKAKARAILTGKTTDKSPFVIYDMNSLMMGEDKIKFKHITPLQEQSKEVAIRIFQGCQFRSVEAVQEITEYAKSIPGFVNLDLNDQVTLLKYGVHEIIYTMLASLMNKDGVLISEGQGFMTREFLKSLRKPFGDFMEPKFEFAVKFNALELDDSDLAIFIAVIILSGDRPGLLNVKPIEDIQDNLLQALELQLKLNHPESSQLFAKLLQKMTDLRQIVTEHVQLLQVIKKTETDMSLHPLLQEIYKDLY
Peroxisome proliferator-activated receptor gamma/Nuclear receptor coactivator 3, sequence (Q9Y6Q9 whole entry, further chain): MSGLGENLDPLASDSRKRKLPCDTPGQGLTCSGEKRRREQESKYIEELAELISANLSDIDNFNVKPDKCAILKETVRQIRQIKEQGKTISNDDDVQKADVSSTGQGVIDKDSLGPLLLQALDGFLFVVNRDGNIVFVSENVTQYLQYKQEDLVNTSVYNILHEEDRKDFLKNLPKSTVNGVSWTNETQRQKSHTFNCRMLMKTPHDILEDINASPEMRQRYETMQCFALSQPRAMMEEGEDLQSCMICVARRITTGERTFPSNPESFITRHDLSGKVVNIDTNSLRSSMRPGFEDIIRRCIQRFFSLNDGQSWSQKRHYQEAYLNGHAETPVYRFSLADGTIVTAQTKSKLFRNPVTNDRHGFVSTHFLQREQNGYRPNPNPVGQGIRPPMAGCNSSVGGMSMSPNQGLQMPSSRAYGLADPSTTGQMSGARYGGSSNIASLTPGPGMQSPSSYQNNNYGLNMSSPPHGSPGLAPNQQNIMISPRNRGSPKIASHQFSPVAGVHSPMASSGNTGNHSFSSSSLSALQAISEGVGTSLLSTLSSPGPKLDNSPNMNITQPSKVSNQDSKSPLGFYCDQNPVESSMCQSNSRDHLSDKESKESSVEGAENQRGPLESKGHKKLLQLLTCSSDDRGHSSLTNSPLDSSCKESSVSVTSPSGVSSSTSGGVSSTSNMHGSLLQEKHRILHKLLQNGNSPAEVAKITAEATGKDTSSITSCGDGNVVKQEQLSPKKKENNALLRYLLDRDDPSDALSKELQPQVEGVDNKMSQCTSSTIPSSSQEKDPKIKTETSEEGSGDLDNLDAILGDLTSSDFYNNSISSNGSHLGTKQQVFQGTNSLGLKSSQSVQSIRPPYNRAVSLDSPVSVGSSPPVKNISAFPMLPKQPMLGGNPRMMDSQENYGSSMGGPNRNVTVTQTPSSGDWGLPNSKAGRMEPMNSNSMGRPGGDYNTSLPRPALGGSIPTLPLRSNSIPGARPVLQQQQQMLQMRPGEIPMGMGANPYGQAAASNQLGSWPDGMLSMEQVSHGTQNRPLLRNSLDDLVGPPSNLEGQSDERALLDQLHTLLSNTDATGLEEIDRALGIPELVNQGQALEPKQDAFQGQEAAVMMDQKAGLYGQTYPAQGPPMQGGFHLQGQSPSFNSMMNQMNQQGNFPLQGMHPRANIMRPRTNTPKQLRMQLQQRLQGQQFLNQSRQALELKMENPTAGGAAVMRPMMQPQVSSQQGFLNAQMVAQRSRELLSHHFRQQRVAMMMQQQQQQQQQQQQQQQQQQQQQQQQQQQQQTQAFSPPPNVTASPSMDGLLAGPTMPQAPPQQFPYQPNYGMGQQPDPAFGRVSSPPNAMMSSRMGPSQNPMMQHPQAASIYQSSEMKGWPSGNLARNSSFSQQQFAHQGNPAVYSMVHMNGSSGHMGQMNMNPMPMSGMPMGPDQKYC

## Cc1ccc(C(=O)COC(=O)CN2C(=O)C3CC=CCC3C2=O)cc1[N+](=O)[O-] (centres undefined)
[1]
  EC50: > 40 µM (inactive)
[2]
  IC50: 33.6 µM (not active)

## COC(=O)c1nnc(NC(C)=O)[nH]1
[3]
  IC50: 12.2 µM (active)

## CN(C)NC(=O)c1ccc([N+](=O)[O-])s1
[4]
  EC50: > 71.4 µM (inactive)

## CN(C)c1ccc(NC(=O)CN2C(=O)CN=C(c3ccccc3)c3cc(Cl)ccc32)cc1
[5]
  IC50: > 100 µM (inactive)
[6]
  IC50: 31 µM (active)
[7]
  IC50: 0.856 µM (not active)

## Cc1ccc(S(=O)(=O)c2nc(-c3cccs3)oc2SCC(N)=O)cc1
[8]
  EC50: 8.44 µM (active)
[9]
  EC50: 7.72 µM (active)
[10]
  EC50: > 79.4 µM (not active)

## Cc1ccc(-c2cc3c(nn2)-c2ccccc2C3=O)cc1
[11]
  AC50: 1.65 µM (active)
[12]
  AC50: 25.5 µM (active)
[13]
  AC50: 18.3 µM (active)
[1]
  EC50: > 40 µM (inactive)
[14]
  AC50: 35.8 µM (active)
[2]
  IC50: 2.89 µM (active)
[15]
  AC50: 1.11 µM (active)

## COc1cccc(C(=O)Nc2nnc(-c3ccc(F)cc3)o2)c1
[16]
  EC50: 5.74 µM (active)
[17]
  CC50: 31.9 µM (active)
[18]
  EC50: 2.33 µM (active)
[19]
  EC50: 1.96 µM (active)
[20]
  CC50: 15.8 µM (active)
[21]
  EC50: > 150 µM (inactive)
[22]
  IC50: 1.03 µM (active)

— ChEMBL document CHEMBL1201862, “PubChem BioAssay data set” (2004)
